In ChEMBL document CHEMBL1156928, “Design of novel nicotinamides as potent and selective monoamine oxidase a inhibitors” (Bioorg Med Chem, 2010):

What was measured:
[1] = biological target: T1, Amine oxidase [flavin-containing] A (Rattus norvegicus, UniProt P21396); assay: Inhibition of MAOA in Sprague-Dawley rat brain mitochondria using kynuramine substrate by fluorimetry
T1 sequence (P21396 whole entry): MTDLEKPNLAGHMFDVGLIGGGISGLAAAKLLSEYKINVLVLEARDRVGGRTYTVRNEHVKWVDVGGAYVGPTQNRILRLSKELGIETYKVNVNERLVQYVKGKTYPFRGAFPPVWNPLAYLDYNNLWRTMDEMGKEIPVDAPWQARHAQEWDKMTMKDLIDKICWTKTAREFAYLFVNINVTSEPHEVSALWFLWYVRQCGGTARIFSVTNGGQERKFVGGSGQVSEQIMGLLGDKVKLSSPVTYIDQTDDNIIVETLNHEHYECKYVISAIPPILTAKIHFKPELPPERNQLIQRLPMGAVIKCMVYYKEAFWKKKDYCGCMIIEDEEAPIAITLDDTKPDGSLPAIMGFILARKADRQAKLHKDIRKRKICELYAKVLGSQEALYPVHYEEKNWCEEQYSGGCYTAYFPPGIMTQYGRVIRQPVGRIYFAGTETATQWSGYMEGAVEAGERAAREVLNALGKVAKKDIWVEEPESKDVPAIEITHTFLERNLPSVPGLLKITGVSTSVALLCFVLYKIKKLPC

[2] = biological target: T2, Amine oxidase [flavin-containing] B (Rattus norvegicus, UniProt P19643); assay: Inhibition of MAOB in Sprague-Dawley rat brain mitochondria using kynuramine substrate by fluorimetry
T2 sequence (P19643 whole entry): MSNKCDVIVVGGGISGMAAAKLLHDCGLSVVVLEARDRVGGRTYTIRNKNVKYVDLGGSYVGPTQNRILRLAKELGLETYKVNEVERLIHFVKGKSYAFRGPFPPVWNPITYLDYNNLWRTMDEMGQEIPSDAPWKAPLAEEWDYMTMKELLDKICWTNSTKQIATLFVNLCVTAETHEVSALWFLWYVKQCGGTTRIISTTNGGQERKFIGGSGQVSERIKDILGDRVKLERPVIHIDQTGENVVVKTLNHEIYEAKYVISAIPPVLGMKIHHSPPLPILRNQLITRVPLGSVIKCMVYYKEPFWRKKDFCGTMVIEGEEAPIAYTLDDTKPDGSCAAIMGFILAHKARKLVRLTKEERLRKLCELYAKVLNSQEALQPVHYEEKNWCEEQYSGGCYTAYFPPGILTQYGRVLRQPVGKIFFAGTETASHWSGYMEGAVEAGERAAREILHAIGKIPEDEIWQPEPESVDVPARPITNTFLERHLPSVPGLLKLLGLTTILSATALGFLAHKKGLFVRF

Structure (SMILES) | IC50 [1] [µM] | IC50 [2] [µM]
O=C(NCCN1CCOCC1)c1cnc(Cl)c(Cl)c1 | 0.084 | 48
Cc1ccc(C(=O)NCCCN2CCOCC2)cn1 | > 100 | > 100
O=C(NCCN1CCOCC1)c1ccc(Cl)nc1 | 0.18 | 34
O=C(NCCN1CCOCC1)c1ccc(=O)[nH]c1 | 0.43 | > 100
O=C(NCCCN1CCOCC1)c1ccc(O)nc1 | 56 | > 100
Cc1ccc(C(=O)NCCCN2CCOCC2)c(Cl)n1 | > 100 | > 100
O=C(NCCCN1CCOCC1)c1cnc(Cl)c(Cl)c1 | 0.1 | 45
O=C(NCCCN1CCOCC1)c1c[nH]c(=O)c(Cl)c1 | 12 | 82
O=C(NCCN1CCOCC1)c1cccnc1O | 45 | > 100
O=C(NCCN1CCOCC1)c1cnccc1Cl | 0.75 | 74
O=C(NCCN1CCOCC1)c1cncc(Br)c1 | 26 | 55
Cc1ccc(C(=O)NCCN2CCOCC2)cn1 | 86 | > 100
O=C(NCCCN1CCOCC1)c1cccnc1Br | 35 | 1.9
O=C(NCCCN1CCOCC1)c1ccc[nH]c1=O | > 100 | > 100
O=C(NCCCN1CCOCC1)c1cnccc1Cl | 7.5 | 53
O=C(NCCCN1CCOCC1)c1cncc(Br)c1 | 23 | 65
O=C(NCCCN1CCOCC1)c1ccc(F)nc1 | 80 | > 100
O=C(NCCN1CCOCC1)c1cccnc1Cl | 2.6 | 1.8
Cc1ccc(C(=O)NCCN2CCOCC2)c(Cl)n1 | 28 | > 100
O=C(NCCN1CCOCC1)c1cnc(O)c(Cl)c1 | 0.045 | 26
O=C(NCCCN1CCOCC1)c1cccnc1 | > 100 | > 100
O=C(NCCN1CCOCC1)c1cccnc1 | 68 | > 100
O=C(NCCN1CCOCC1)c1cccnc1Br | 8.5 | 0.32
O=C(NCCCN1CCOCC1)c1cccnc1Cl | 9.4 | 6.5
O=C(NCCCN1CCOCC1)c1ccc(Cl)nc1 | 0.38 | 75
O=C(NCCN1CCOCC1)c1ccc(F)nc1 | 15 | > 100
O=C(NCCN1CCOCC1)c1ccc(Cl)cc1 [MOCLOBEMIDE] | – | > 100
